The values below are quoted from earlier work in US20030153514A1, “Remedies for cancer” (priority 2000, published 2003).

The test system of the data set is NKT cells (Vα24Vβ11). The following applies: cancer-bearing mice.

As for `CCCCCCCCCCCCCCCCCCCCCCCCCC(=O)N[C@@H](CO[C@H]1O[C@H](CO)[C@H](O)[C@H](O)[C@H]1O)[C@H](O)[C@H](O)CCCCCCCCCCCCCC` [α-galactosylceramide], the NKT cells entry was “activated”, the disappearance of cancer result is “not observed” and the metastasis entry is reported as “suppressed”.
